Experimental data from US8952024B2, “Herbicidal pyrimidone derivatives” (E I du Pont de Nemours and Company, priority 2009, dated 2015).

What was measured:
Assay in all cases: Test C plant response
Assay type in all cases: in vivo
Conditions in all cases: Postemergence, scale 0 to 100
[1] = system: Italian ryegrass (Lolium multiflorum)
Summary of the method: (§1)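 Visual response scores run from 0 (no effect) to 100 (complete control), assigned 14 days after treatment by comparison with untreated plants. Compounds were applied in a surfactant-containing non-phytotoxic solvent mixture.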

[2] = system: Russian thistle (Salsola iberica)
Summary of the method: as §1

[3] = system: blackgrass (Alopecurus myosuroides)
Summary of the method: as §1

[4] = system: bluegrass (annual bluegrass, Poa annua)
Summary of the method: as §1

[5] = system: bromegrass (downy bromegrass, Bromus tectorum)
Summary of the method: as §1

[6] = system: canarygrass (Phalaris minor)
Summary of the method: as §1

[7] = system: deadnettle (henbit deadnettle, Lamium amplexicaule)
Summary of the method: as §1

[8] = system: field violet (Viola arvensis)
Summary of the method: as §1

[9] = system: galium (catchweed bedstraw, Galium aparine)
Summary of the method: as §1

[10] = system: green foxtail (Setaria viridis)
Summary of the method: as §1

[11] = system: kochia (Kochia scoparia)
Summary of the method: as §1

[12] = system: lambsquarters (Chenopodium album)
Summary of the method: as §1

[13] = system: oilseed rape (Brassica napus)
Summary of the method: as §1

[14] = system: pigweed (Amaranthus retroflexus)
Summary of the method: as §1

[15] = system: spring barley (Hordeum vulgare)
Summary of the method: as §1

[16] = system: spring wheat (Triticum aestivum)
Summary of the method: as §1

[17] = system: wild mustard (Sinapis arvensis)
Summary of the method: as §1

[18] = system: wild oat (Avena fatua)
Summary of the method: as §1

[19] = system: wild radish (Raphanus raphanistrum)
Summary of the method: as §1

[20] = system: winter wheat (Triticum aestivum)
Summary of the method: as §1

COc1ccc(-n2c(-c3ccccc3)ncc(C(=O)C3=C(O)CCCC3=O)c2=O)cc1 [Compound 4, 5-[(2-hydroxy-6-oxo-cyclohexen-1-yl)carbonyl]-3-(4-methoxyphenyl)-2-phenyl-4(3H)-pyrimidinone]
0: Plant response rating: Canarygrass ([6]; 31 g ai/ha) | Plant response rating: Wheat, Winter ([20]; 31 g ai/ha)
100: Plant response rating: Deadnettle ([7]; 125 g ai/ha) | Plant response rating: Lambsquarters ([12]; 31 g ai/ha) | Plant response rating: Lambsquarters ([12]; 125 g ai/ha) | Plant response rating: Oilseed Rape ([13]; 125 g ai/ha) | Plant response rating: Pigweed ([14]; 125 g ai/ha) | Plant response rating: Mustard, Wild ([17]; 125 g ai/ha)
70: Plant response rating: Russian Thistle ([2]; 31 g ai/ha) | Plant response rating: Foxtail, Green ([10]; 31 g ai/ha)
15: Plant response rating: Ryegrass, Italian ([1]; 125 g ai/ha) | Plant response rating: Barley, Spring ([15]; 125 g ai/ha) | Plant response rating: Wheat, Spring ([16]; 31 g ai/ha)
10: Plant response rating: Ryegrass, Italian ([1]; 31 g ai/ha) | Plant response rating: Barley, Spring ([15]; 31 g ai/ha)
40: Plant response rating: Blackgrass ([3]; 125 g ai/ha) | Plant response rating: Bromegrass, Downy ([5]; 125 g ai/ha) | Plant response rating: Field Violet ([8]; 31 g ai/ha)
60: Plant response rating: Field Violet ([8]; 125 g ai/ha)
20: Plant response rating: Blackgrass ([3]; 31 g ai/ha) | Plant response rating: Wheat, Spring ([16]; 125 g ai/ha) | Plant response rating: Oat, Wild ([18]; 31 g ai/ha) | Plant response rating: Wheat, Winter ([20]; 125 g ai/ha)
80: Plant response rating: Radish, Wild ([19]; 31 g ai/ha)
95: Plant response rating: Russian Thistle ([2]; 125 g ai/ha) | Plant response rating: Foxtail, Green ([10]; 125 g ai/ha) | Plant response rating: Kochia ([11]; 125 g ai/ha) | Plant response rating: Pigweed ([14]; 31 g ai/ha) | Plant response rating: Radish, Wild ([19]; 125 g ai/ha)
65: Plant response rating: Galium ([9]; 31 g ai/ha)
50: Plant response rating: Bluegrass ([4]; 125 g ai/ha) | Plant response rating: Oat, Wild ([18]; 125 g ai/ha)
90: Plant response rating: Canarygrass ([6]; 125 g ai/ha) | Plant response rating: Galium ([9]; 125 g ai/ha) | Plant response rating: Kochia ([11]; 31 g ai/ha) | Plant response rating: Oilseed Rape ([13]; 31 g ai/ha)
98: Plant response rating: Deadnettle ([7]; 31 g ai/ha) | Plant response rating: Mustard, Wild ([17]; 31 g ai/ha)
35: Plant response rating: Bluegrass ([4]; 31 g ai/ha) | Plant response rating: Bromegrass, Downy ([5]; 31 g ai/ha)

Cc1ccccc1-n1c(-c2ccccc2)ncc(C(=O)C2=C(O)CCCC2=O)c1=O [Compound 12]
35: Plant response rating: Field Violet ([8]; 31 g ai/ha) | Plant response rating: Field Violet ([8]; 16 g ai/ha) | Plant response rating: Kochia ([11]; 62 g ai/ha)
30: Plant response rating: Blackgrass ([3]; 62 g ai/ha) | Plant response rating: Bluegrass ([4]; 62 g ai/ha)
40: Plant response rating: Blackgrass ([3]; 125 g ai/ha) | Plant response rating: Bluegrass ([4]; 125 g ai/ha) | Plant response rating: Field Violet ([8]; 62 g ai/ha) | Plant response rating: Field Violet ([8]; 125 g ai/ha)
100: Plant response rating: Deadnettle ([7]; 31 g ai/ha) | Plant response rating: Deadnettle ([7]; 16 g ai/ha) | Plant response rating: Deadnettle ([7]; 62 g ai/ha) | Plant response rating: Deadnettle ([7]; 125 g ai/ha)
15: Plant response rating: Bromegrass, Downy ([5]; 62 g ai/ha) | Plant response rating: Oat, Wild ([18]; 31 g ai/ha) | Plant response rating: Oat, Wild ([18]; 62 g ai/ha) | Plant response rating: Oat, Wild ([18]; 125 g ai/ha)
75: Plant response rating: Kochia ([11]; 125 g ai/ha) | Plant response rating: Pigweed ([14]; 62 g ai/ha) | Plant response rating: Pigweed ([14]; 125 g ai/ha)
60: Plant response rating: Russian Thistle ([2]; 31 g ai/ha) | Plant response rating: Russian Thistle ([2]; 16 g ai/ha) | Plant response rating: Russian Thistle ([2]; 62 g ai/ha) | Plant response rating: Galium ([9]; 62 g ai/ha) | Plant response rating: Foxtail, Green ([10]; 31 g ai/ha) | Plant response rating: Radish, Wild ([19]; 16 g ai/ha)
5: Plant response rating: Galium ([9]; 16 g ai/ha)
50: Plant response rating: Galium ([9]; 31 g ai/ha) | Plant response rating: Foxtail, Green ([10]; 16 g ai/ha) | Plant response rating: Oilseed Rape ([13]; 16 g ai/ha)
0: Plant response rating: Ryegrass, Italian ([1]; 31 g ai/ha) | Plant response rating: Ryegrass, Italian ([1]; 16 g ai/ha) | Plant response rating: Ryegrass, Italian ([1]; 62 g ai/ha) | Plant response rating: Ryegrass, Italian ([1]; 125 g ai/ha) | Plant response rating: Blackgrass ([3]; 16 g ai/ha) | Plant response rating: Bromegrass, Downy ([5]; 16 g ai/ha) | Plant response rating: Kochia ([11]; 16 g ai/ha) | Plant response rating: Barley, Spring ([15]; 31 g ai/ha) | Plant response rating: Barley, Spring ([15]; 16 g ai/ha) | Plant response rating: Barley, Spring ([15]; 62 g ai/ha) | Plant response rating: Barley, Spring ([15]; 125 g ai/ha) | Plant response rating: Wheat, Spring ([16]; 31 g ai/ha) | Plant response rating: Wheat, Spring ([16]; 16 g ai/ha) | Plant response rating: Wheat, Spring ([16]; 62 g ai/ha) | Plant response rating: Wheat, Spring ([16]; 125 g ai/ha) | Plant response rating: Oat, Wild ([18]; 16 g ai/ha) | Plant response rating: Wheat, Winter ([20]; 31 g ai/ha) | Plant response rating: Wheat, Winter ([20]; 16 g ai/ha) | Plant response rating: Wheat, Winter ([20]; 62 g ai/ha)
70: Plant response rating: Russian Thistle ([2]; 125 g ai/ha) | Plant response rating: Lambsquarters ([12]; 16 g ai/ha) | Plant response rating: Oilseed Rape ([13]; 31 g ai/ha)
95: Plant response rating: Lambsquarters ([12]; 125 g ai/ha) | Plant response rating: Oilseed Rape ([13]; 125 g ai/ha) | Plant response rating: Mustard, Wild ([17]; 31 g ai/ha) | Plant response rating: Mustard, Wild ([17]; 62 g ai/ha) | Plant response rating: Mustard, Wild ([17]; 125 g ai/ha)
80: Plant response rating: Galium ([9]; 125 g ai/ha) | Plant response rating: Foxtail, Green ([10]; 62 g ai/ha) | Plant response rating: Lambsquarters ([12]; 31 g ai/ha) | Plant response rating: Lambsquarters ([12]; 62 g ai/ha) | Plant response rating: Oilseed Rape ([13]; 62 g ai/ha) | Plant response rating: Mustard, Wild ([17]; 16 g ai/ha) | Plant response rating: Radish, Wild ([19]; 31 g ai/ha)
10: Plant response rating: Bluegrass ([4]; 16 g ai/ha) | Plant response rating: Bromegrass, Downy ([5]; 31 g ai/ha) | Plant response rating: Kochia ([11]; 31 g ai/ha) | Plant response rating: Wheat, Winter ([20]; 125 g ai/ha)
65: Plant response rating: Pigweed ([14]; 31 g ai/ha) | Plant response rating: Pigweed ([14]; 16 g ai/ha)
90: Plant response rating: Foxtail, Green ([10]; 125 g ai/ha) | Plant response rating: Radish, Wild ([19]; 62 g ai/ha) | Plant response rating: Radish, Wild ([19]; 125 g ai/ha)
20: Plant response rating: Blackgrass ([3]; 31 g ai/ha) | Plant response rating: Bluegrass ([4]; 31 g ai/ha) | Plant response rating: Bromegrass, Downy ([5]; 125 g ai/ha)
